Reference: patent publication US20220168430A1, “THERAPEUTIC METHODS FOR TREATING HEPATITIS B” (priority 2019, published 2022)
Read-outs that look alike come from different tables or passages of the source.

Tested on: HBV rcDNA
Experiment: Dual agent combination in HepDE19 cells, rcDNA by Quantigene 2.0 bDNA assay (Examples 5-8)
Format: cell-based, HBV; HepDE19 (HepG2 human hepatocarcinoma derived)
Conditions: Hepatitis B virus; for EC50: read-out: Avg. Inhibitor A EC50
Procedure: In vitro dual agent combination studies were conducted using the method of Prichard and Shipman 1990 (Prichard M N, Shipman C, Jr. 1990. Antiviral Res 14:181-205). The HepDE19 cell culture system is a HepG2 (human hepatocarcinoma) derived cell line that supports HBV DNA replication and cccDNA formation under control the control of a CMV Tet-off promoter system (Guo et al. 2007. J Virol 81:12472-84). HepDE19 (50,000 cells/well) were plated in 96 well collagen-coated tissue-culture treated microtiter plates in DMEM/F12 medium supplemented with 10% fetal bovine serum+1% penicillin-streptomycin with tetracycline (1 μg/mL) and incubated in a humidified incubator at 37° C. and 5% CO2 overnight. Next day, the cells were switched to fresh medium without tetracycline and incubated for 4 hrs at 37° C. and 5% CO2. The cells were switched to fresh medium and treated with inhibitor A and inhibitor B, at concentration range spanning their respective EC50 values. […] The two inhibitors were tested both singly as well as in combinations in a checkerboard fashion such that each concentration of inhibitor A was combined with each concentration of inhibitor B to determine their combination effects on inhibition of rcDNA production. There were four replicates of each concentration combination in each experiment. The plates were incubated for 7 days in a humidified incubator at 37° C. and 5% CO2. The level of rcDNA present in the wells was measured using a Quantigene 2.0 bDNA assay kit (Affymetrix, Santa Clara, Calif.) with HBV specific custom probe set (genotype D ayw) and according to the manufacturer's instructions and read using a luminescence plate reader and the relative luminescence units (RLU) data generated from each well was calculated as % inhibition of the untreated control wells and analyzed using the MacSynergy II program to determine whether the combinations were synergistic, additive or antagonistic using the interpretive guidelines established by Prichard and Shipman (Prichard M N, Shipman C, Jr. 1990. […] Each experiment was repeated at least three times and the averages and standard deviations of individual determinations was calculated to derive the conclusion. Concurrently, in each experiment, the effect of inhibitor combinations on cell viability was assessed using replicate plates in triplicates that were used to determine the ATP content as a measure of cell viability using the Cell-Titer Glo reagent (Promega, Madison, Wis.) as per the manufacturer's instructions.

SMILES: Cn1cnc(COC(=O)N[C@H]2CCc3c(C(=O)Nc4ccc(F)c(Cl)c4)ccc(F)c32)n1 [Compound 1]
- inhibition at 0.005 µM (HepDE19, Cmpd 1 0.005 μM, ETV μM by grid row: r7 0.0250, r8 0.0083, r9 0.0028, r10 0.0009, r11 0.0003, r12 0, HepDE19 cells, Expt 1, read-out: AVERAGE % INHIBITION, rcDNA): -5.55%
- inhibition at 0.01 µM (HepDE19, Cmpd 1 0.010 μM, ETV μM by grid row: r7 0.0250, r8 0.0083, r9 0.0028, r10 0.0009, r11 0.0003, r12 0, HepDE19 cells, Expt 1, read-out: AVERAGE % INHIBITION, rcDNA): -2.14%
- inhibition at 0.02 µM (HepDE19, Cmpd 1 0.020 μM, ETV μM by grid row: r7 0.0250, r8 0.0083, r9 0.0028, r10 0.0009, r11 0.0003, r12 0, HepDE19 cells, Expt 1, read-out: AVERAGE % INHIBITION, rcDNA): 20.8%
- inhibition at 0.039 µM (HepDE19, Cmpd 1 0.039 μM, ETV μM by grid row: r7 0.0250, r8 0.0083, r9 0.0028, r10 0.0009, r11 0.0003, r12 0, HepDE19 cells, Expt 1, read-out: AVERAGE % INHIBITION, rcDNA): 28.3%
- inhibition at 0.156 µM (HepDE19, Cmpd 1 0.156 μM, ETV μM by grid row: r7 0.0250, r8 0.0083, r9 0.0028, r10 0.0009, r11 0.0003, r12 0, HepDE19 cells, Expt 1, read-out: AVERAGE % INHIBITION, rcDNA): 82%
- inhibition at 1.25 µM (HepDE19, Cmpd 1 1.25 μM, ETV μM by grid row: r7 0.0250, r8 0.0083, r9 0.0028, r10 0.0009, r11 0.0003, r12 0, HepDE19 cells, Expt 1, read-out: AVERAGE % INHIBITION, rcDNA): 98.9%
- EC50 (HepDE19, Cmpd 1 in combination study with ETV, n = 3): 59 nM
- EC50 (HepDE19, Cmpd 1 in combination study with SIRNA-NP, n = 3): 64 nM
- EC50 (HepDE19, Cmpd 1 in combination study with TAF, n = 4): 74 nM
- EC50 (HepDE19, Cmpd 1 in combination study with TDF, n = 3): 80 nM
- inhibition at 0.005 µM (HepDE19, Expt 1 (with TDF), Compound 1 0.005 μM alone, read-out: ADDITIVE INHIBITION): -44.9%
- inhibition at 0.005 µM (HepDE19, Expt 1 (with TDF), Compound 1 0.005 μM alone, read-out: AVERAGE % INHIBITION): -44.9%
- inhibition at 0.01 µM (HepDE19, Expt 1 (with TDF), Compound 1 0.010 μM alone, read-out: ADDITIVE INHIBITION): -40.7%
- inhibition at 0.01 µM (HepDE19, Expt 1 (with TDF), Compound 1 0.010 μM alone, read-out: AVERAGE % INHIBITION): -40.7%
- inhibition at 0.02 µM (HepDE19, Expt 1 (with TDF), Compound 1 0.020 μM alone, read-out: ADDITIVE INHIBITION): -21.6%
- inhibition at 0.02 µM (HepDE19, Expt 1 (with TDF), Compound 1 0.020 μM alone, read-out: AVERAGE % INHIBITION): -21.6%
- inhibition at 0.039 µM (HepDE19, Expt 1 (with TDF), Compound 1 0.039 μM alone, read-out: ADDITIVE INHIBITION): 0.64%
- inhibition at 0.039 µM (HepDE19, Expt 1 (with TDF), Compound 1 0.039 μM alone, read-out: AVERAGE % INHIBITION): 0.64%
- inhibition at 0.156 µM (HepDE19, Expt 1 (with TDF), Compound 1 0.156 μM alone, read-out: ADDITIVE INHIBITION): 68.2%
- inhibition at 0.156 µM (HepDE19, Expt 1 (with TDF), Compound 1 0.156 μM alone, read-out: AVERAGE % INHIBITION): 68.2%
- inhibition at 1.25 µM (HepDE19, Expt 1 (with TDF), Compound 1 1.250 μM alone, read-out: ADDITIVE INHIBITION): 97.3%
- inhibition at 1.25 µM (HepDE19, Expt 1 (with TDF), Compound 1 1.250 μM alone, read-out: AVERAGE % INHIBITION): 97.3%
- inhibition at 0.007 µM (HepDE19, Expt 1, Cmpd 1 0.007 μM alone, read-out: AVERAGE % INHIBITION): -23.5%
- inhibition at 0.067 µM (HepDE19, Expt 1, Cmpd 1 0.067 μM alone): 43.7%
- inhibition at 0.2 µM (HepDE19, Expt 1, Cmpd 1 0.200 μM alone): 78.4%
- inhibition at 0.6 µM (HepDE19, Expt 1, Cmpd 1 0.600 μM alone): 92.9%
- inhibition at 0.005 µM (HepDE19, Expt 1, Compound 1 0.005 μM alone, read-out: AVERAGE % INHIBITION): -81.7%
- inhibition at 0.01 µM (HepDE19, Expt 1, Compound 1 0.010 μM alone, read-out: AVERAGE % INHIBITION): -86.4%
- inhibition at 0.02 µM (HepDE19, Expt 1, Compound 1 0.020 μM alone, read-out: AVERAGE % INHIBITION): -84.7%
- inhibition at 0.039 µM (HepDE19, Expt 1, Compound 1 0.039 μM alone, read-out: AVERAGE % INHIBITION): -14.2%
- inhibition at 0.156 µM (HepDE19, Expt 1, Compound 1 0.156 μM alone, read-out: AVERAGE % INHIBITION): 59.4%
- inhibition at 1.25 µM (HepDE19, Expt 1, Compound 1 1.250 μM alone, read-out: AVERAGE % INHIBITION): 98.3%
- inhibition at 0.007 µM (HepDE19, Expt 2 (with TDF), Compound 1 0.007 μM alone, read-out: AVERAGE % INHIBITION): -35.1%
- inhibition at 0.067 µM (HepDE19, Expt 2 (with TDF), Compound 1 0.067 μM alone): 28.1%
- inhibition at 0.2 µM (HepDE19, Expt 2 (with TDF), Compound 1 0.200 μM alone): 80.5%
- inhibition at 0.6 µM (HepDE19, Expt 2 (with TDF), Compound 1 0.600 μM alone): 95.2%
- inhibition at 0.005 µM (HepDE19, Expt 2, Cmpd 1 0.005 μM alone, read-out: AVERAGE % INHIBITION): 5.58%
- inhibition at 0.01 µM (HepDE19, Expt 2, Cmpd 1 0.010 μM alone, read-out: AVERAGE % INHIBITION): -0.61%
- inhibition at 0.02 µM (HepDE19, Expt 2, Cmpd 1 0.020 μM alone, read-out: AVERAGE % INHIBITION): 6.6%
- inhibition at 0.039 µM (HepDE19, Expt 2, Cmpd 1 0.039 μM alone, read-out: AVERAGE % INHIBITION): 25.9%
- inhibition at 0.156 µM (HepDE19, Expt 2, Cmpd 1 0.156 μM alone, read-out: AVERAGE % INHIBITION): 84.1%
- inhibition at 1.25 µM (HepDE19, Expt 2, Cmpd 1 1.250 μM alone, read-out: AVERAGE % INHIBITION): 98.3%
